Assay results from a melting point compilation (Tetko et al.; mined from patent text by program, amines drawn as free bases though some values may be those of a salt).

| SMILES | melting point |
| --- | --- |
| COc1ccc(-c2c(-c3ccccc3)nc3n2CCS3)cc1OC | 176 to 178 °C |
| Cc1nnc(-c2cc3c(OC[C@@H](O)CN4CCC(c5ccc6ccccc6c5)CC4)cccc3[nH]2)o1 | 215 to 217 °C |
| O=C(Nc1cccnc1)N1CCN(c2nccc(-c3cc(F)cc(F)c3)n2)CC1 | 231 to 232 °C |
| COc1ccc(OC)c(-c2cn(N)c(N)n2)c1 | 159 to 160 °C |
| O=C(O)c1ccc(N2CCN(c3ccncc3)CC2)cc1 | > 300 °C |
| CN1C(=O)CC[C@]2(C)c3ccc(-c4ccc(O)c(C=O)c4)cc3CC[C@@H]12 | 184 to 187 °C |
| O=C(Nc1ccc(OC(F)(F)F)cc1)NC1CCN(C(=O)Cc2ccccn2)CC1 | 183 to 187 °C |
| COc1ccc2[nH]c(SCc3ncc(C)c(N4CCCCC4)c3Cl)nc2c1 | 154 to 156 °C |
| O=C1N(CC2OC(O)C(O)C(O)C2O)c2ccccc2C12COc1cc3c(cc12)OCCO3 (stereo not drawn) | 122 to 126 °C |
| O=c1ccn(C2CC(O)C(CNC(c3ccccc3)(c3ccccc3)c3ccccc3Cl)O2)c(=O)[nH]1 (stereo not drawn) | 129 to 131 °C |
| CCN1CN(c2cccc(C(F)(F)F)c2)c2ncccc2C1=O | 108 to 109 °C |
| CC[C@H]1COC(=O)N1c1nc(-c2ccc(Br)cc2)c(F)s1 | 105 to 107 °C |
| O=C1N[C@H](Cc2ccc(C(F)(F)F)cc2)[C@H](c2ccc(F)cc2F)O1 (racemic) | 147 to 148 °C |
| CN1C(=O)[C@H](NC(=O)CCc2ccccc2Cl)N=C(c2ccccc2)c2ccccc21 | 158 to 160 °C |
| O=C(N1CCc2cc(S(=O)(=O)Cl)ccc2C1)C(F)(F)F | 110 to 112 °C |
| COc1ccc2nc(Cl)nc(N(C)c3ccccc3)c2c1 | 133 to 134 °C |
| CN1CCC(NC(=O)c2cccc3nc(-c4ccccc4)oc23)CC1 | 209 to 210 °C |
| O=C(Cc1ccccc1)N1CCc2[nH]c(=O)n3nc(-c4ccccc4F)nc3c2C1 | 310 to 313 °C |
| COCc1c(-c2ccc(O)cc2)oc2ccccc2c1=O | 237 to 239 °C |
| N#Cc1cc(-c2ccco2)nc(N)n1 | 193 to 194 °C |
| O=c1oc(-c2ccccc2F)nc2c(Cl)ccc(Cl)c12 | 140 °C |
| O=C(CCCCC1(C(=O)O)CC1)CCCCC1(C(=O)O)CC1 | 132 to 134 °C |
| CC(O)(c1ccc(OCc2ccc3ccccc3n2)cc1)c1ccc(OCc2ccc3ccccc3n2)cc1 | 129 to 131 °C |
| O=C(O)CCc1cn(Cc2ccc(OCc3ccoc3)cc2)cc1-c1ccccc1 | 110 to 111 °C |

| SMILES | melting point |
| --- | --- |
| CC1(C)CCC(C)(C)c2c(O)ccc(O)c21 | 114 °C |
| O=C1CCC(N2C(=O)c3cccc(CNC(=O)c4ccccc4)c3C2=O)C(=O)N1 (stereo not drawn) | 227 to 229 °C |
| COn1c(-c2ccccc2)nc2c(N)nc3ccccc3c21 | 241 to 243 °C |
| COc1ccc(-c2cnc(-c3ccccc3)[nH]c2=O)cc1OC | 230 °C |
| CCN1CCCC(N2C(=O)c3ccc(N)cc3C2=O)C1 (stereo not drawn) | > 300 °C |
| Nc1ccc2c(ccn2O)n1 | 227 to 228 °C |
| CCCCC1(CCCC)c2cc(Br)ccc2-c2ccc(N(c3ccccc3)c3ccccc3)cc21 | 116 to 118 °C |
| N#Cc1c(-c2ccccc2)[nH]c(=O)c2cccnc12 | 292 to 295 °C |
| O=C1CC2(SCCS2)C(=O)N1 | 112 to 115 °C |
| COc1ccc(C2CNC(=O)NC2)cc1OCCCCc1ccccc1 | 142 to 143 °C |
| Fc1ccc(Cn2c(NC3CCN(CCc4cn5ccccc5n4)CC3)nc3ccccc32)cc1 | 208 °C |
| C[C@@H]1CN2C(=O)c3ccccc3[C@@](O)(c3ccc(F)cc3)C2=N1 | 229 to 232 °C |
| Cc1nc2ccccc2c2ccc(F)cc12 | 92 to 93 °C |
| CN(C)CCCOc1ccc(-c2nnc(CSCCOc3ccccc3)o2)cn1 | 69 to 70 °C |
| CCCCCCCCCCCCC1=CC(=O)c2c(Cl)cccc2C1=O | 57.5 to 58.5 °C |
| Nc1sc2c(c1C(=O)c1ccc(I)cc1)CCN(C(=O)Nc1ccccc1)C2 | 89 to 90 °C |
| COC[C@@H](NC(C)=O)C(=O)NCc1ccc(I)cc1 | 159 to 160 °C |
| NC(=O)c1nn(-c2c(Cl)cc(C(F)(F)F)cc2Cl)c(N)c1S(=O)(=O)C(F)(F)F | 217 °C |
| OC1CSC(Oc2cc(-c3cccnc3)ccc2Cl)C(O)C1O (stereo not drawn) | 172 °C |
| O=C1NC[C@@H]2CCCC[C@@H]12 (relative stereo) | 85 to 88 °C |
| Cn1nnnc1CC(O)(c1ccccc1)c1ccc(F)cc1 (stereo not drawn) | 113 to 114 °C |
| COc1ccc(-c2cnc(N)c(Cc3ccccc3)n2)cc1 | 150 to 153 °C |
| CN1CCN(CCC#Cc2csc3ncc(C#N)c(Nc4ccc5[nH]ccc5c4)c23)CC1 | 184 to 186 °C |
| Cn1cc(C(=O)O)c(=O)c2c3cc(F)c(N4CCCC4)cc3ncc21 | 365 °C |

The remaining lines, values ahead:

| melting point | SMILES |
| --- | --- |
| 102 to 103 °C | CC[C@H](C)C(=O)O[C@H]1C[C@@H](C)C=C2C=C[C@H](C)[C@H](CCC(=O)C[C@@H](O)CC(=O)O)[C@H]21 |
| 219 °C | CN(CCOc1ccc(C=C2SC(=O)NC2=O)cc1)c1nc2ccccc2s1 |
| 238 to 241 °C | Cc1c(-c2ccccc2)oc2c(C(=O)NCCCN3CCC(n4c(=O)[nH]c5ccccc54)CC3)cccc2c1=O |
| 55 to 59 °C | CSc1ccc(C(=O)CBr)c(F)c1 |
| 178 to 180 °C | O=[N+]([O-])c1cccc(-c2cc(C(O)c3ccnc(Cl)c3)cc3ccoc23)c1 (stereo not drawn) |
| 195 to 197 °C | Cc1c(C(=O)Nc2ccc(N3CCN(CCO)CC3)c(C#N)c2)cnn1-c1ccc(Cl)c(Cl)c1 |
| 150 to 155 °C | CC(CCC(=O)O)C1CCC2C3C(O)CC4CC(NC(=O)CNC(=O)OC(C)(C)C)CCC4(C)C3CC(O)C12C (stereo not drawn) |
| 268 °C | COc1ccc(-c2[nH]nc3c2C(=O)c2c(NC(=O)Cc4ccc(NC(C)=O)cc4)cccc2-3)cc1 |
| 173 to 174 °C | O=C(O)CS(=O)c1cc2onc(-c3ccccc3F)c2cc1Br (stereo not drawn) |
| 63 °C | COC(=O)COc1ccc(CC(C)=O)cc1 |
| 95 to 96 °C | CCOC(=O)C1=CCCCC1S(=O)(=O)Nn1cccc1C1CC1 (stereo not drawn) |
| 140 °C | COC(=O)CC1Oc2ccccc2NC1=O (stereo not drawn) |
| 158 to 160 °C | CC(C)=CCOc1ccc2c(=O)c(C)c(-c3ccccc3)oc2c1C(=O)C=Cc1cccs1 |
| 179 °C | CC(C)(C)OC(=O)N1CCC2(Cc3ccc(C#N)cc3)C(=O)N(c3cc(Cl)nc(Cl)c3)C(=O)N12 (stereo not drawn) |
| 278 °C | O=C(O)c1ccc2cc(-c3ccc(OCC(O)CO)c(C45CC6CC(CC(C6)C4)C5)c3)ccc2c1 (stereo not drawn) |
| 179 to 180 °C | N#CCCNC(=O)c1cccc(-c2ccc3c(c2)N(Cc2cc(Cl)cc(Cl)c2)CC3)c1 |
| 75 to 76 °C | CCOC(=O)CC(NC(=O)c1ccccc1)C(=O)c1ccco1 (stereo not drawn) |
| 80 to 82 °C | CCC(C)c1ccc(N(Cc2ccc(C(C)(C)C)cc2)C(=N)N(C)c2ccccc2)cc1 (stereo not drawn) |
| 139 to 140 °C | CCCCCCCCCCCCCCCCOC(=O)c1ccc(-c2nnn[nH]2)nc1 |
| 125 to 140 °C | COc1cc(C(=O)N2CCC(CCN3CCC(C(=O)c4nc5ccccc5n4CCCC(=O)O)CC3)(c3ccc(Cl)c(Cl)c3)C2)cc(OC)c1OC (stereo not drawn) |
| 145 to 148 °C | CNC(=C[N+](=O)[O-])NCCCCc1nc[nH]c1Br |
| 110 to 112 °C | O=C(Nc1cc(-c2nc(Cc3ccccc3)c[nH]2)ccn1)c1ccccc1 |
| 130 to 131 °C | CC(C)(C)OC(=O)NCCNC(=O)c1cc([N+](=O)[O-])ccn1 |
| 103 to 104 °C | C=CC(=O)NCc1ccc(Cl)cc1 |
| 150 °C | Cc1cc(-n2ccnc2)c2cccc(OCc3c(Cl)ccc(S(=O)(=O)N4CCC[C@H]4C(=O)NCC4CCNCC4)c3Cl)c2n1 |

| melting point | SMILES |
| --- | --- |
| 85 to 87 °C | CCc1cccc(CC)c1NC(=S)NC(C)(C)CC |
| 198 to 199 °C | O=C(O)C(=O)c1ccc(OCCCCc2ccncc2)cc1 |
| 171 to 173 °C | CN(C(CCn1c(=O)cc(Cl)[nH]c1=O)C(=O)NO)S(=O)(=O)c1ccc(Oc2ccc(Cl)cc2)cc1 (stereo not drawn) |
| 164 to 167 °C | CCCCC(CC)C(=O)Nc1ccc2ccn(Cc3ccc(C(=O)OC)c4ccoc34)c2c1 (stereo not drawn) |
| 130 to 132 °C | CN(C)C(=O)Nc1ccc(OS(C)(=O)=O)c(Cl)c1 |
| 121 to 123 °C | Cc1cc(Oc2c(Cl)cc(C(F)(F)F)cc2Cl)nn1C(=O)NCc1ccccn1 |
| 166 to 168 °C | CC(C)(C)c1cc(-c2nc(CC(=O)O)co2)cc(C(C)(C)C)c1O |
| 119 °C | Cc1ccnc(N2C(=S)SCC2(C)O)c1 (stereo not drawn) |
| 154 to 156 °C | CCOC(=O)C(=O)Nc1nc(CN2CCN(C(c3ccccc3)c3ccccc3)CC2)c(Cl)s1 |
| 109 to 110 °C | CCCc1c(OCCCCCCc2cccc(CCCCCC(=O)O)c2CCC(=O)O)ccc2c1OCCC2=O |
| 82 to 84 °C | Cc1cc(Br)cnc1CCCCNc1ncc(Cc2cccnc2)cc1[N+](=O)[O-] |
| 80 to 82 °C | Cc1c(F)c(F)c(F)c(F)c1C(=O)O |
| 158 to 160 °C | Cc1ccc(C(C#N)Nc2ccc(S(C)(=O)=O)cc2)cc1 (stereo not drawn) |
| 157 to 158 °C | CCCC1CC(=O)c2c(NC(=O)C(=O)O)ccc(C)c21 (stereo not drawn) |
| 193 to 198 °C | COc1ccccc1-c1nsc2ccc([N+](=O)[O-])cc12 |
| 196 to 199 °C | CNC1C(O)CC2C3CCc4cc(OC(=O)C(C)(C)C)ccc4C3CCC21C (stereo not drawn) |
| 207 to 211 °C | Cc1noc(NS(=O)(=O)c2ccc(NC(=O)c3ccccc3)cc2-c2ccc(CC(C)C)cc2)c1C |
| 163 to 165 °C | COc1ccccc1-c1cc(NC(=O)[C@H]2CCCNC2)ncn1 |
| 188 to 189 °C | CCC(C(C)=CC(CNC(=O)c1cc(C)n[nH]1)=NO)[N+](=O)[O-] (stereo not drawn) |
| 287 °C | O=C(Nc1nn[nH]n1)c1cnc(N2CCOCC2)nc1OC1CCCCCC1 |
| 137 to 142 °C | NC(=O)COCC(Cc1ccccc1)NC(=O)[C@@H]1CCCN1C(=O)OCc1ccccc1 (stereo partly drawn) |
| 54 to 56 °C | CC(=O)C1(O)C=c2ccccc2=NC1C (stereo not drawn) |
| 179 to 180 °C | COc1ccc(CN2C=CC=C3C2=Nc2cc(OC)ccc2S(=O)(=O)N3C)cc1 |
| > 260 °C | Cc1[nH]c(=O)c(-c2csc(-c3ccnc(NCCNC(C)C)c3)n2)cc1C(=O)NCCNC(C)C |
| 272 to 273 °C | COc1ccc2ccc3nc(C(=O)O)cn3c2c1 |
